Data reported in PubChem BioAssay (NCI).
Several values for one entry are separate records, joined by “and”; a condition that tells them apart may be missing. Equal values may be shown once.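 Following 48 hours of exposure in 96-well plates, responses at five concentrations were used to interpolate endpoints linearly. GI50 marks 50% less growth. TGI: concentration producing complete growth inhibition.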

Assays:
Experiment in all cases: inhibition of tumour cell growth, NCI panel, 48 h
NCI-H226 lung = tested on: NCI-H226 lung
OVCAR-3 ovarian = tested on: OVCAR-3 ovarian
SNB-19 CNS = tested on: SNB-19 CNS
MALME-3M melanoma = tested on: MALME-3M melanoma
HCT-116 colon = tested on: HCT-116 colon
UO-31 renal = tested on: UO-31 renal
SR leukemia = tested on: SR leukemia
OVCAR-8 ovarian = tested on: OVCAR-8 ovarian
OVCAR-5 ovarian = tested on: OVCAR-5 ovarian
M14 melanoma = tested on: M14 melanoma

Compound | TGI (NCI-H226 lung) | TGI (OVCAR-3 ovarian) | TGI (SNB-19 CNS) | TGI (MALME-3M melanoma) | TGI (HCT-116 colon) | TGI (UO-31 renal) | TGI (SR leukemia) | TGI (OVCAR-8 ovarian) | GI50 (NCI-H226 lung) | GI50 (OVCAR-3 ovarian) | GI50 (SNB-19 CNS) | GI50 (OVCAR-5 ovarian) | TGI (OVCAR-5 ovarian) | GI50 (MALME-3M melanoma) | GI50 (M14 melanoma) | TGI (M14 melanoma) | GI50 (HCT-116 colon) | GI50 (UO-31 renal) | GI50 (OVCAR-8 ovarian) | GI50 (SR leukemia)
C1CN2CCO[SiH](O1)OCC2 | > 100 µM | > 100 µM | > 100 µM | > 100 µM | > 100 µM | > 100 µM | > 100 µM | > 100 µM |  |  |  |  |  |  |  |  |  |  |  | 
NC1=NC(c2ccccc2Cl)c2c(n[nH]c2N)N1 (centres undefined) | > 100 µM | > 100 µM | > 100 µM | > 100 µM | > 100 µM | > 100 µM |  | > 100 µM | 38.4 µM | 32.1 µM | 39.7 µM | 50.2 µM | > 100 µM | 61.3 µM | 18.1 µM | > 100 µM | 7.77 µM | 9.21 µM | 45.6 µM | 
CCc1c(OC(C)=O)c2c(NC3OC(COC(C)=O)C(OC(C)=O)C(OC(C)=O)C3OC(C)=O)nc(SC)nc2oc1=O (centres undefined) | > 100 µM | > 100 µM | > 100 µM | > 100 µM | > 100 µM | > 100 µM |  | > 100 µM |  |  |  |  | > 100 µM |  |  | > 100 µM |  |  |  | 
Nc1nc(Cl)c2ncn(Cc3ccc(C45CC6CC(CC(C6)C4)C5)c(OCc4cc(F)c(F)cc4F)c3)c2n1 | 21.9 µM | 14.7 µM | 46.6 µM | 8.62 µM | 2.2 µM | 19.4 µM |  | 14.2 µM | 5.69 µM | 2.09 µM | 6.48 µM | 13.4 µM | 33.9 µM | 2.47 µM |  |  | 1.03 µM | 4.54 µM | 2.94 µM | 
O=C1OC(=O)c2c1nc1ccccc1c2-c1ccccc1 | > 100 µM |  | > 100 µM | > 100 µM | > 100 µM | > 100 µM | > 100 µM | > 100 µM |  |  |  |  | > 100 µM |  |  | > 100 µM |  |  |  | 
[O-][n+]1c2cccc(O)c2[n+]([O-])c2cccc(O)c21 |  | > 100 µM | > 100 µM |  | > 100 µM | > 100 µM |  | > 100 µM |  |  |  |  | > 100 µM |  |  | > 100 µM |  |  |  | 
COc1cc([C@@H]2c3cc4c(cc3[C@H](SC(=N)N)[C@H]3COC(=O)[C@H]23)OCO4)cc(OC)c1OC | > 100 µM | 0.35 µM | > 100 µM |  | > 100 µM | > 71.2 µM | > 100 µM | > 100 µM | 0.573 µM | 0.0767 µM | 0.449 µM | 0.638 µM | > 100 µM |  | 0.288 µM | > 100 µM | 0.197 µM | 2.6 µM | 0.348 µM | 0.0897 µM
O=C(Nc1ccccc1C(=O)NC(=O)c1ccccc1NC(=O)c1ccccc1)c1ccccc1 |  | 13.4 µM | 24.8 µM | 12.1 µM | 13.5 µM |  | 8.52 µM | 23 µM |  |  |  |  | 13.5 µM |  |  |  |  |  |  | 
O=c1[nH]c(=S)[nH]c(O)c1/C=C1\C=Nc2ccccc21 | 46.1 µM | 3.13 µM | 59.3 µM |  | 10.1 µM |  | 4.52 µM | > 100 µM | 12.5 µM | 1.44 µM | 4.53 µM | 25.7 µM | > 100 µM |  | 10.6 µM | 35.1 µM | 2.49 µM |  | 3.47 µM | 1.72 µM
CC1CCCP(=O)(c2ccccc2)CCC1 (centres undefined) |  | > 100 µM | > 100 µM | > 100 µM |  | > 100 µM |  | > 100 µM |  |  |  |  | > 100 µM |  |  | > 100 µM |  |  |  | 
N#CC(C(=O)Nc1ccccc1)C1=C(Cl)C(=O)c2ccccc2C1=O (centres undefined) | 30.8 µM | 34.5 µM | 36.3 µM | 26.7 µM | 27.3 µM | 26.9 µM |  | 46.1 µM |  |  |  |  | 32.2 µM |  |  | 30.3 µM |  |  |  | 
CCCCCCCCCC1CC(=O)OC23CCCC(=O)C12O3 (centres undefined) | > 100 µM | > 100 µM | > 100 µM | > 100 µM | > 100 µM | > 100 µM |  | > 100 µM |  |  |  |  | > 100 µM |  |  | > 100 µM |  |  |  | 
COc1ccccc1/C=C(\NC(=O)c1ccccc1)c1nc2ccc(Cl)cc2[nH]1 | 58 µM | 49.6 µM | > 100 µM | > 100 µM | > 100 µM | 46.6 µM |  | 73 µM |  |  |  |  | > 100 µM |  |  | > 100 µM |  |  |  | 
CCOC1c2nc3ccccc3nc2-c2ccccc2N1C(C)=O (centres undefined) |  | > 100 µM | > 100 µM |  | > 100 µM | > 100 µM | > 100 µM | > 100 µM |  |  |  |  |  |  |  | > 100 µM |  |  |  | 
Cc1ccc(S(=O)(=O)Nc2ccccc2C(C)(C)C)cc1 | 56.3 µM | 40 µM |  | 89.1 µM | 29.1 µM | 47.3 µM |  | > 100 µM |  |  |  |  | > 100 µM |  |  |  |  |  |  | 
Cc1ccccc1Nc1cc(O)c2c(=O)cc(-c3ccccc3)oc2c1 | > 100 µM | 4.91 µM | > 100 µM | > 100 µM | > 100 µM |  | > 100 µM | > 100 µM | 4.11 µM | 1.72 µM | 2.98 µM | > 100 µM | > 100 µM | 2.43 µM | 2.39 µM | > 100 µM | 3.36 µM |  | 3.61 µM | 0.395 µM
Cc1ccc(-n2c3nc(=O)n(C)c(=O)c-3nc3ccccc32)c(C)c1 | 30.7 µM | 6.33 µM | 16.1 µM | 12.9 µM | 24 µM | 52.5 µM |  | 32.9 µM |  |  |  |  | 32.7 µM |  |  | 18.6 µM |  |  |  | 
CCOC(=O)C[C@@]12CCCN[C@]1(C)CCc1ccccc12 |  | > 100 µM | > 100 µM | > 100 µM | > 100 µM | > 100 µM | > 100 µM | > 100 µM |  |  |  |  | > 100 µM |  |  | > 100 µM |  |  |  | 
COc1cccc(-c2cc(=O)c3cc(N4CCN(C)CC4)ccc3[nH]2)c1 |  |  | 8.41 µM |  | > 100 µM | > 100 µM | 2.49 µM | 4.99 µM and 6.39 µM | 2.83 µM |  |  | 6.24 µM | > 100 µM |  | 2.61 µM | > 100 µM | 0.92 µM |  | 1.78 µM | 
